From PubChem BioAssay (NCI) come the findings set out here.

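Cultured in 96-well plates, cells were exposed to test compound for 48 hours across five concentrations. GI50 = concentration required for 50% inhibition of growth. Definition used: TGI = concentration required for complete inhibition of growth.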

Some test systems named below: HCT-116 colon; HCT-15 colon; HS 578T breast; HT29 colon; IGROV1 ovarian; OVCAR-8 ovarian; PC-3 prostate; SW-620 colon; T-47D breast; UO-31 renal.
Test in all cases: NCI anticancer screen, dose series, 48 h

Consider `O=C(O)c1ccc(CI)cc1`, for which the TGI in the experiment with HCT-116 colon is 28.1 µM; with HCT-15 colon, 39.8 µM; in the experiment on HS 578T breast, more than 100 µM; in the experiment with HT29 colon, 37.9 µM; in the experiment with IGROV1 ovarian, 38.2 µM; in the experiment on OVCAR-8 ovarian, 37.3 µM. Besides, the TGI in the experiment on PC-3 prostate was 30.3 µM; in the experiment with SW-620 colon it was 33.7 µM; in the experiment with T-47D breast, 48 µM; in the experiment with UO-31 renal, 32.7 µM.
Consider `COC(=O)c1cc2c3ccccc3n3c(=O)c4cc5ccc(N(S(=O)(=O)c6ccc(C)cc6)S(=O)(=O)c6ccc(C)cc6)cc5nc4c(n1)c23`, for which the GI50 was more than 100 µM in the experiment on HCT-15 colon; 29.3 µM with HS 578T breast; more than 100 µM in the experiment with HT29 colon; 43.7 µM with IGROV1 ovarian; more than 100 µM with OVCAR-8 ovarian; more than 100 µM in the experiment with PC-3 prostate. Besides, the GI50 in the experiment on SW-620 colon, in the experiment on T-47D breast and in the experiment on UO-31 renal was more than 100 µM throughout. The TGI in the experiment on HCT-15 colon, in the experiment on HS 578T breast, in the experiment on HT29 colon, with IGROV1 ovarian, in the experiment with OVCAR-8 ovarian and in the experiment with PC-3 prostate was more than 100 µM throughout. Also, the TGI with SW-620 colon, in the experiment on T-47D breast and in the experiment on UO-31 renal was more than 100 µM throughout.
For the compound `C=CCn1c(C)nc2ccc(Nc3nc(Nc4ccc(F)cc4)nc4ccccc34)cc21`, the GI50 was 2.41 µM with HCT-116 colon; 2.84 µM in the experiment on HCT-15 colon; 9.83 µM in the experiment on HS 578T breast; 3 µM in the experiment on HT29 colon; 6.09 µM in the experiment on IGROV1 ovarian; 3.05 µM in the experiment on OVCAR-8 ovarian. The GI50 is 3.14 µM in the experiment on PC-3 prostate, 2.8 µM in the experiment with SW-620 colon, 1.7 µM in the experiment with T-47D breast and 4.53 µM with UO-31 renal. Further, the TGI with HCT-116 colon was 7.67 µM; in the experiment on HCT-15 colon, 10.4 µM; with HS 578T breast it was 56.7 µM; with HT29 colon it was 13.3 µM; in the experiment on IGROV1 ovarian, 27.2 µM; with OVCAR-8 ovarian it was 13.6 µM. Further, the TGI was determined as 14.7 µM in the experiment on PC-3 prostate, 10.7 µM in the experiment on SW-620 colon, 4.23 µM in the experiment with T-47D breast and 19.3 µM in the experiment on UO-31 renal.
Regarding `CS(=O)(=O)CCNCc1cc(-c2cc3c(Nc4ccc(OCc5cccc(F)c5)c(Cl)c4)ncnc3s2)cs1`, the GI50 with HCT-116 colon was 12 µM; with HCT-15 colon, 5.55 µM; in the experiment on HS 578T breast, 4.67 µM; in the experiment on HT29 colon it was 5.41 µM; in the experiment with IGROV1 ovarian, 5.61 µM; in the experiment with OVCAR-8 ovarian, 16.5 µM. Further, the GI50 with PC-3 prostate is 13 µM; with SW-620 colon, 15 µM; in the experiment with T-47D breast, 3 µM; with UO-31 renal, 4.52 µM. The TGI with HCT-116 colon was more than 25 µM; with HCT-15 colon it was more than 20.9 µM; in the experiment on HS 578T breast, more than 17.6 µM; in the experiment on HT29 colon it was 13.1 µM; in the experiment on IGROV1 ovarian it was more than 25 µM; in the experiment with OVCAR-8 ovarian it was more than 25 µM. The TGI in the experiment with PC-3 prostate is more than 25 µM; in the experiment with SW-620 colon it was more than 25 µM; in the experiment on T-47D breast, more than 23.6 µM; in the experiment with UO-31 renal it was more than 25 µM.
For the compound `O=S(=O)(NCCNc1nccc(-c2c(-c3ccc(F)c(O)c3)nc3sccn23)n1)c1ccc(F)cc1`, the GI50 with HCT-15 colon was 3.25 µM; in the experiment with HS 578T breast it was 2.94 µM; in the experiment on HT29 colon, 4.19 µM; with IGROV1 ovarian, 2.43 µM; in the experiment on OVCAR-8 ovarian it was 4.25 µM; in the experiment on SW-620 colon it was 5.22 µM. Also, the GI50 in the experiment with T-47D breast was 5.02 µM; in the experiment with UO-31 renal, 4.02 µM. Further, the TGI in the experiment on HCT-15 colon is 52.6 µM; in the experiment on HS 578T breast, 8.81 µM; in the experiment with HT29 colon, 31.1 µM; with IGROV1 ovarian, 7.96 µM; in the experiment on OVCAR-8 ovarian it was 48 µM; with SW-620 colon it was 30.4 µM. In addition, the TGI in the experiment with T-47D breast was 28 µM; with UO-31 renal, 15.1 µM.
For `Cc1[nH]nc(C(F)(F)F)c1N=NN(C)C`, the TGI worked out at 4.99 µM with HCT-116 colon; 24.4 µM with HCT-15 colon; 44.6 µM with HS 578T breast; 34.1 µM in the experiment on HT29 colon; 24.6 µM in the experiment with OVCAR-8 ovarian; 25.1 µM in the experiment with PC-3 prostate. Moreover, the TGI was more than 100 µM in the experiment on SW-620 colon, more than 100 µM with T-47D breast and 5.03 µM in the experiment on UO-31 renal.
Regarding `O=c1c2cc(F)ccc2sc2c(N3CCNCC3)nc3ccc(F)cc3c12`, the GI50 is 1.63 µM with HCT-116 colon; 1.44 µM in the experiment on HCT-15 colon; 1.7 µM in the experiment on HS 578T breast; 1.65 µM in the experiment on HT29 colon; 1.34 µM in the experiment with IGROV1 ovarian; 1.7 µM with PC-3 prostate. Also, the GI50 in the experiment with SW-620 colon was 1.61 µM; in the experiment on UO-31 renal, 1.31 µM. Moreover, the TGI came out at 3.21 µM in the experiment with HCT-116 colon; 2.84 µM in the experiment on HCT-15 colon; 3.6 µM in the experiment with HS 578T breast; 3.22 µM in the experiment with HT29 colon; 2.74 µM in the experiment with IGROV1 ovarian; 3.3 µM with PC-3 prostate. Further, the TGI is 3.12 µM in the experiment with SW-620 colon and 2.6 µM with UO-31 renal.
As to `Cn1c(-c2c(N)n(Nc3cccc(Cl)c3)c3nc(C#N)c(C#N)nc23)nc2ccccc21`, the GI50 in the experiment with HCT-116 colon was 8.54 µM; in the experiment with HCT-15 colon, 3.45 µM; with HS 578T breast, 7.26 µM; in the experiment with IGROV1 ovarian, 1.27 µM; in the experiment with OVCAR-8 ovarian it was 7.56 µM; in the experiment with PC-3 prostate, 10.5 µM. In addition, the GI50 is 7.94 µM in the experiment on SW-620 colon, 13.2 µM in the experiment on T-47D breast and 3.74 µM with UO-31 renal. For the same compound, the TGI is more than 50 µM in the experiment with HCT-116 colon; 17.2 µM in the experiment on HCT-15 colon; 30.1 µM in the experiment with HS 578T breast; 12.6 µM in the experiment with IGROV1 ovarian; 26.4 µM in the experiment on OVCAR-8 ovarian; 33.9 µM in the experiment with PC-3 prostate. Besides, the TGI in the experiment with SW-620 colon is more than 50 µM; in the experiment on T-47D breast it was more than 50 µM; with UO-31 renal, 11.3 µM.
Turning to `COc1cccc(/C(C#N)=C/c2nc3c(N4CCOCC4)nc(Cl)nc3n2C)c1`, the GI50 with HCT-116 colon is 0.171 µM; with HCT-15 colon it was 0.312 µM; in the experiment on HS 578T breast it was 1.59 µM; in the experiment on HT29 colon, 0.351 µM; with IGROV1 ovarian, 1.2 µM; with OVCAR-8 ovarian, 1.01 µM. In addition, the results for the GI50 in the experiment on PC-3 prostate, in the experiment with SW-620 colon and with UO-31 renal were 1.06 µM, 0.429 µM and 0.48 µM, respectively. In addition, the TGI was 0.433 µM in the experiment with HCT-116 colon; 1.3 µM with HCT-15 colon; 5.88 µM in the experiment on HS 578T breast; 1.36 µM with HT29 colon; 2.49 µM in the experiment with IGROV1 ovarian; 3.07 µM in the experiment with OVCAR-8 ovarian. Also, the values for the TGI in the experiment with PC-3 prostate, in the experiment on SW-620 colon and in the experiment with UO-31 renal were 2.98 µM, 1.7 µM and 1.92 µM, respectively.
On to `COc1ccc(-c2cs/c(=N\N=C\c3ccc(O)cc3O)n2/N=C/c2ccc(O)cc2O)cc1`, for which the GI50 in the experiment with HCT-116 colon is 1.57 µM; in the experiment with HCT-15 colon, 1.73 µM; in the experiment with HS 578T breast, 2.7 µM; in the experiment with HT29 colon, 2.41 µM; in the experiment with IGROV1 ovarian it was 2.67 µM; in the experiment on OVCAR-8 ovarian it was 2.47 µM. Further, the GI50 with SW-620 colon was 2.33 µM; in the experiment on T-47D breast, 1.65 µM; with UO-31 renal, 1.5 µM. The TGI with HCT-116 colon was found to be 3.04 µM; in the experiment with HCT-15 colon, 5.12 µM; in the experiment on HS 578T breast, 7.36 µM; with HT29 colon, 5.26 µM; with IGROV1 ovarian, 6.5 µM; in the experiment on OVCAR-8 ovarian, 6.63 µM. The TGI in the experiment on SW-620 colon was determined as 4.91 µM; with T-47D breast, 6.22 µM; in the experiment on UO-31 renal, 3.2 µM.
Turning to `O=C(Nc1cc(C(F)(F)F)ccc1Cl)c1ccc(NC2=C(Cl)C(=O)N(Cc3ccccc3)C2=O)cc1`, the GI50 with HCT-116 colon was 17.2 µM; with HCT-15 colon, 13.2 µM; in the experiment on HS 578T breast it was 31.9 µM; with HT29 colon it was 26.6 µM; with IGROV1 ovarian, 1.99 µM; in the experiment on OVCAR-8 ovarian it was 14.6 µM. The GI50 was 14.8 µM in the experiment on PC-3 prostate, 6.72 µM with SW-620 colon and 14.1 µM in the experiment on T-47D breast. For the same compound, the TGI was more than 100 µM with HCT-116 colon; more than 100 µM in the experiment with HCT-15 colon; more than 100 µM in the experiment with HS 578T breast; more than 100 µM with HT29 colon; 6.41 µM in the experiment on IGROV1 ovarian; 41.3 µM in the experiment with OVCAR-8 ovarian. Moreover, the figures for the TGI in the experiment with PC-3 prostate, with SW-620 colon and in the experiment on T-47D breast were 37.8 µM, more than 100 µM and more than 100 µM, respectively.
Turning to `CN(C)CCNc1ccc(CO)c2sc3ccc(O)cc3c(=O)c12`, the TGI in the experiment on HCT-116 colon was 9.71 µM; in the experiment with HCT-15 colon, 14.2 µM; with HT29 colon, 9.35 µM; in the experiment on IGROV1 ovarian, 16.4 µM; in the experiment with OVCAR-8 ovarian, 8.89 µM; in the experiment on PC-3 prostate it was 5.92 µM. In addition, the TGI with SW-620 colon amounted to 10.5 µM; in the experiment on T-47D breast it was 7.68 µM; with UO-31 renal, 6.68 µM.
Turning to `COc1cc(C2SCCCCCCCCCCSC(c3ccc(O)c(OC)c3)SCCCCCCCCCCS2)ccc1O` (centres undefined), the TGI with HCT-116 colon, with HCT-15 colon, in the experiment with HT29 colon, in the experiment with IGROV1 ovarian, in the experiment on OVCAR-8 ovarian and in the experiment with PC-3 prostate was more than 100 µM in each case. In addition, the TGI in the experiment with SW-620 colon, with T-47D breast and with UO-31 renal was more than 100 µM each time.
